The target in assay [1] is KIF18A (Homo sapiens (Human), UniProt Q8NI77). The assay is described as follows: KIF18A ATPase activity under tubulin stimulation (ADP-Glo assay). It counts as biochemical. The following applies: KIF18A 30 nM, ATP 150 μM, pig microtubules. On the technique in general: ADP-Glo turns the ADP formed in a reaction into a luminescent signal.
Assay [2] relates to OVCAR-3 cells. The assay is described as follows: OVCAR-3 cell proliferation (Cell Titer-Glo, 10 days). It is filed as cell-based, human. As for the experimental part: The inhibitory effect on the KIF18A target by the compounds of the present disclosure was evaluated by testing the inhibitory effect on proliferation of OVCAR-3 cells by the compounds of the present disclosure.
The following method was used to determine the effect of the compounds of the present disclosure on the proliferation of human ovarian cancer cells Ovcar-3 (HTB-161, ATCC). Cells were cultured in RPMI-1640 complete medium containing 20% fetal bovine serum, 0.01 mg/mL bovine insulin, 100 U penicillin, and 100 μg/mL streptomycin. The Promega kit Cell Titer-Glo (Cat. No. G7572) was used in this method for test.
For specific steps, reference was made to the kit instructions, and the procedure was outlined below: Test compounds were dissolved in DMSO to prepare a 10 mM stock solution, which was diluted at the predetermined test concentrations, and the test compounds at different concentrations were added to a 384-well cell test plate using ECHO. In the plate pre-added with the test compounds, 400 OVCAR-3 cells in the logarithmic growth phase were seeded per well, ensuring the final concentration of the test compounds in the reaction system ranged between 0.12 nM and 10 μM. The co-culture was maintained in a cell culture incubator for 10 days. Before testing, the cell culture plate was equilibrated for 10 minutes at room temperature, 25 μL of Cell Titer-Glo was added to each well, and the mixture was shaken and mixed well and let stand for 5 minutes. The luminescence values for samples in various wells were read using a microplate reader in Luminescence mode.
The percentage of inhibition of cell proliferation by the test compound at each concentration was calculated by comparing with the values of the control group (0.1% DMSO). The IC50 values of the compounds were obtained by concentration-inhibition rate nonlinear regression analysis of the test compounds using GraphPad Prism 9.
On the technique in general: In ATP-based viability assays light output follows the ATP content of the culture.

Broadly, the IC50 is the concentration at which inhibition is half-maximal. A high value points to weaker potency in that assay.

Like-named read-outs stand apart in the source and are kept apart here.

Sequence of KIF18A (Q8NI77 whole entry): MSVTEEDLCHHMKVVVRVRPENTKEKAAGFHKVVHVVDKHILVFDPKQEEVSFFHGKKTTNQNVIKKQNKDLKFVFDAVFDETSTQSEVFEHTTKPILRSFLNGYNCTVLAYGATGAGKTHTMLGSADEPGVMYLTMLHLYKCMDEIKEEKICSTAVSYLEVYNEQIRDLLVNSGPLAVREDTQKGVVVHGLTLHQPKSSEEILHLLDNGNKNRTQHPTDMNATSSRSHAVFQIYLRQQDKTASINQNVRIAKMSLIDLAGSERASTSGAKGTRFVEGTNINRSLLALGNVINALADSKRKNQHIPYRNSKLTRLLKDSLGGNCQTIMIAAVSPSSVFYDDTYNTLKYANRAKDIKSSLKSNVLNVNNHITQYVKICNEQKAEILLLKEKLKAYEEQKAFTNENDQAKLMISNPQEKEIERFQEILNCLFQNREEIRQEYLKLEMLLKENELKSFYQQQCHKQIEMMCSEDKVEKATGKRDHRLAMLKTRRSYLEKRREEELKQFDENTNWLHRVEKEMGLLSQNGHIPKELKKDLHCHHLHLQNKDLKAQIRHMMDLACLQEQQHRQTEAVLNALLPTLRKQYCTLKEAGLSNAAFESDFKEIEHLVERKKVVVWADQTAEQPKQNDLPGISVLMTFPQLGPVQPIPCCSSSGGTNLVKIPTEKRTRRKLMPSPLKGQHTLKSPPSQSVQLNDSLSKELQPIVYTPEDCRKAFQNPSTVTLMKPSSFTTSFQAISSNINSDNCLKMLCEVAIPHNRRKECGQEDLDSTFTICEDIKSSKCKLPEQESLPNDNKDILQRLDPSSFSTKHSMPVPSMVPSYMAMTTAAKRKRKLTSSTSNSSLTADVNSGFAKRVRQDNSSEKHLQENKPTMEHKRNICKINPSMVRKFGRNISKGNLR
Sequence of KIF18A (P02550 whole entry partner): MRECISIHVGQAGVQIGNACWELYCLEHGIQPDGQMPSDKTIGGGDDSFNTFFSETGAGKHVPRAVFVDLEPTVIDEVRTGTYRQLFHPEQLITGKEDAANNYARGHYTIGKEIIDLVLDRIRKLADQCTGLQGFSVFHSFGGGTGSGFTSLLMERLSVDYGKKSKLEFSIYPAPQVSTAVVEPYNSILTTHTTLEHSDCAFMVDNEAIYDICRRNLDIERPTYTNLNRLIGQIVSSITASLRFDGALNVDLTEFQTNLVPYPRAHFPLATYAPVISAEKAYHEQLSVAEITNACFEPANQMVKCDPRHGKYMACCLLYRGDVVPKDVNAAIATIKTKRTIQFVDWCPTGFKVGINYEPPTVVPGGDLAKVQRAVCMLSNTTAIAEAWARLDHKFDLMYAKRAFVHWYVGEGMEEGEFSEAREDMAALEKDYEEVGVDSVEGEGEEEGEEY
Sequence of KIF18A (P02554 whole entry partner): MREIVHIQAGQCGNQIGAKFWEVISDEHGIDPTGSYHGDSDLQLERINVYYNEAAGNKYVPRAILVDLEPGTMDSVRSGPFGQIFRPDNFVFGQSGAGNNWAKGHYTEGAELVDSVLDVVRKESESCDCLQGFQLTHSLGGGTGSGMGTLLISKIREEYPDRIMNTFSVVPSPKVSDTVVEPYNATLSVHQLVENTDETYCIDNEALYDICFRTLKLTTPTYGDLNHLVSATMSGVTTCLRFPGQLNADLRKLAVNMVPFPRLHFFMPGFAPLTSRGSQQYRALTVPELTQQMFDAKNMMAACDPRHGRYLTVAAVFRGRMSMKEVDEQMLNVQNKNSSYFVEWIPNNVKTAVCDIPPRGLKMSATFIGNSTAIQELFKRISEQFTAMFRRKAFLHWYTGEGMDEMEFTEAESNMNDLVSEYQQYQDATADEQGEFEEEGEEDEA

As to `O=C(Nc1cccc2c1ccn2CC1CC1(F)F)c1ccc(NS(=O)(=O)CCO)cc1N1CCC2(CC1)CC2` (centres unmarked) [Example 286, N-(1-((2,2-difluorocyclopropyl)methyl)-1H-indol-4-yl)-4-((2-hydroxyethyl)sulfonamido)-2-(6-azaspiro[2.5]oct-6-yl)benzamide], the IC50 in assay [1] was no more than 50 nM; in assay [2] (Homo sapiens, OVCAR-3, 240 h) it was 50 to 500 nM.
The corresponding values for `O=C(Nc1cccc2c1cnn2CC1CC1)c1ccc(NS(=O)(=O)CCO)cc1N1CCC2(CC1)CC2` [Example 287, N-(1-(cyclopropylmethyl)-1H-indazol-4-yl)-4-(2-hydroxyethylsulfonamido)-2-(6-azaspiro[2.5]octan-6-yl)benzamide] are 50 to 500 nM and 50 to 500 nM.
As for `O=C(Nc1ccc(F)c2c1OCCN2CC1CC1)c1ccc(NS(=O)(=O)CCO)cc1N1CCC2(CC1)CC2` [Example 294, N-(4-(cyclopropylmethyl)-5-fluoro-3,4-dihydro-2H-benzo[b][1,4]oxazin-8-yl)-4-((2-hydroxyethyl)sulfonamido)-2-(6-azaspiro[2.5]oct-6-yl)benzamide], the IC50 in assay [1] is no more than 50 nM; in assay [2] (Homo sapiens, OVCAR-3, 240 h) it was 500 to 5000 nM.
For `CC1Cn2c(cc3c(NC(=O)c4ccc(NS(=O)(=O)CCO)cc4N4CCC5(CC4)CC5)cccc32)C(C)O1` (centres unmarked) [Example 312, N-(1,3-dimethyl-3,4-dihydro-1H-[1,4]oxazino[4,3-a]indol-9-yl)-4-((2-hydroxyethyl)sulfonamido)-2-(6-azaspiro[2.5]oct-6-yl)benzamide] the same measures were 50 to 500 nM and no more than 50 nM.
For `O=C(Nc1cccc2c1cc1n2CC(F)(F)CC1)c1ccc(NS(=O)(=O)CCO)cc1N1CCC2(CC1)CC2` [Example 341, N-(7,7-difluoro-6,7,8,9-tetrahydropyridino[1,2-a]indol-1-yl)-4-((2-hydroxyethyl)sulfonamido)-2-(6-azaspiro[2.5]oct-6-yl)benzamide] the same measures were 50 to 500 nM and 50 to 500 nM.
For `O=C(Nc1cccc2c1cc1n2CCCC1O)c1ccc(NS(=O)(=O)CCO)cc1N1CCC2(CC1)CC2` (centres unmarked) [Example 342, N-(9-hydroxy-6,7,8,9-tetrahydropyridino[1,2-a]indol-1-yl)-4-((2-hydroxyethyl)sulfonamido)-2-(6-azaspiro[2.5]octan-6-yl)benzamide] the same measures were no more than 50 nM and 50 to 500 nM.
Regarding `O=C(Nc1cccc2c1cc1n2CCOC1=O)c1ccc(NS(=O)(=O)CCO)cc1N1CCC2(CC1)CC2` [Example 346, 4-((2-hydroxyethyl)sulfonamido)-N-(1-oxo-3,4-dihydro-1H-[1,4]oxazino[4,3-a]indol-9-yl)-2-(6-azaspiro[2.5]oct-6-yl)benzamide], the 50% inhibitory concentration (IC50) in assay [1] is 50 to 500 nM; in assay [2] (Homo sapiens, OVCAR-3, 240 h) it was greater than 5000 nM.
Take `O=C(Nc1ccc(NS(=O)(=O)CCO)cc1N1CCC2(CC1)CC2)c1cccc2c1cc1n2CCOC1` [Example 357]: the IC50 is no more than 50 nM in assay [1] and 50 to 500 nM in assay [2].
Consider `O=C(Nc1cc(F)cc2c1cc1n2CCOC1)c1ccc(NS(=O)(=O)CCO)cc1N1CCC2(CC1)CC2` [Example 366, N-(7-fluoro-3,4-dihydro-1H-[1,4]oxazino[4,3-a]indol-9-yl)-4-((2-hydroxyethyl)sulfonamido)-2-(6-azaspiro[2.5]oct-6-yl)benzamide], for which the IC50 in assay [1] is no more than 50 nM; in assay [2] (Homo sapiens, OVCAR-3, 240 h), no more than 50 nM.
Regarding `O=C(Nc1cc(F)cc2c1cc1n2CCOC1)c1ccc(NS(=O)(=O)CCO)cc1N1CCC(=C(F)F)CC1` [Example 367, 2-(4-(difluoromethylene)piperidin-1-yl)-N-(7-fluoro-3,4-dihydro-1H-[1,4]oxazino[4,3-a]indol-9-yl)-4-((2-hydroxyethyl)sulfonamido)benzamide], the IC50 in assay [1] is no more than 50 nM; in assay [2] (Homo sapiens, OVCAR-3, 240 h) it was 50 to 500 nM.
The corresponding values for `O=C(Nc1cc(F)cc2c1nc1n2CCOC1)c1ccc(NS(=O)(=O)CCO)cc1N1CCC2(CC1)CC2` [Example 368, N-(7-fluoro-3,4-dihydro-1H-benzo[4,5]imidazo[2,1-c][1,4]oxazin-9-yl)-4-((2-hydroxyethyl)sulfonamido)-2-(6-azaspiro[2.5]oct-6-yl)benzamide] are no more than 50 nM and no more than 50 nM.
For `O=C(Nc1cc(F)cc2c1nc1n2CCOC1)c1ccc(NS(=O)(=O)CCO)cc1N1CCC(=C(F)F)CC1` [Example 369, 2-(4-(difluoromethylene)piperidin-1-yl)-N-(7-fluoro-3,4-dihydro-1H-benzo[4,5]imidazo[2,1-c][1,4]oxazin-9-yl)-4-((2-hydroxyethyl)sulfonamido)benzamide] the same measures were no more than 50 nM and 50 to 500 nM.
For `CCS(=O)(=O)Nc1ccc(C(=O)Nc2cccc3c2cc2n3CCCC2O)c(N2CCC3(CC2)CC3)c1` (centres unmarked) [Example 373, 4-(ethylsulfonamido)-N-(9-hydroxy-6,7,8,9-tetrahydropyridino[1,2-a]indol-1-yl)-2-(6-azaspiro[2.5]oct-6-yl)benzamide] the same measures were no more than 50 nM and no more than 50 nM.
Consider `CCS(=O)(=O)Nc1ccc(C(=O)Nc2cccc3c2cc2n3CCC(F)(F)C2O)c(N2CCC(=C(F)F)CC2)c1` (centres unmarked) [Example 381, N-(8,8-difluoro-9-hydroxy-6,7,8,9-tetrahydropyridino[1,2-a]indol-1-yl)-2-(4-(difluoromethylene)piperidin-1-yl)-4-ethyl sulfonamidobenzamide], for which the IC50 in assay [1] and in assay [2] was no more than 50 nM in each case.
With `N#Cc1ccc(NC(=O)c2ccc(NS(=O)(=O)CCO)cc2N2CCC3(CC2)CC3)c2cc3n(c12)CCC(F)(F)C3O` (centres unmarked) [Example 438, N-(4-cyano-8,8-difluoro-9-hydroxy-6,7,8,9-tetrahydropyridino[1,2-a]indol-1-yl)-4-((2-hydroxyethyl)sulfonamido)-2-(6-azaspiro[2.5]oct-6-yl)benzamide], the IC50 was 50 to 500 nM in assay [1] and no more than 50 nM in assay [2] (Homo sapiens, OVCAR-3, 240 h).
Consider `CC1Cn2c(nc3c(NC(=O)c4ccc(NS(=O)(=O)CCO)cc4N4CCC5(CC4)CC5)cccc32)C(C)O1` (centres unmarked) [Example 444, 2-(6-azaspiro[2.5]oct-6-yl)-N-(1,3-dimethyl-3,4-dihydro-1H-benzo[4,5]imidazo[2,1-c][1,4]oxazin-9-yl)-4-{[(2-hydroxyethyl)sulfonamide]}benzamide], for which the IC50 in assay [1] and in assay [2] was no more than 50 nM each time.
Regarding `CC1Cn2c(nc3c(NC(=O)c4ccc(NS(=O)(=O)CCO)cc4N4CCC5(CC4)CC5)ccc(F)c32)C(C)O1` (centres unmarked) [Example 445, 2-(6-azaspiro[2.5]oct-6-yl)-N-(6-fluoro-1,3-dimethyl-3,4-dihydro-1H-benzo[4,5]imidazo[2,1-c][1,4]oxazin-9-yl)-4-{[(2-hydroxyethyl)sulfonamide]}benzamide], the IC50 in assay [1] and in assay [2] was no more than 50 nM in each case.
Turning to `COc1ccc(NC(=O)c2ccc(NS(=O)(=O)CCO)cc2N2CCC3(CC2)CC3)c2cc3n(c12)CC(C)OC3C` (centres unmarked) [Example 449], the IC50 in assay [1] is 50 to 500 nM; in assay [2], no more than 50 nM.
On to `CC1(C)Cn2c(cc3c(NC(=O)c4ccc(NS(=O)(=O)CCO)nc4N4CCC5(CC4)CC5)cccc32)CO1` [Example 453, N-(3,3-dimethyl-3,4-dihydro-1H-[1,4]oxazino[4,3-a]indol-9-yl)-6-((2-hydroxyethyl)sulfonamido)-2-(6-azaspiro[2.5]octan-6-yl)nicotinamide], for which the IC50 in assay [1] was in the range of 50 to 500 nM; in assay [2] (Homo sapiens, OVCAR-3, 240 h) it was 500 to 5000 nM.

(Values after US20260070887A1 (Shenzhen Zhongge Biological Technology Co., Ltd., priority 2022, published 2026).)
